The conditions of data set [1]: cited from earlier work.
Data set [2] concerns Staphylococcus aureus (ATCC 6538). Description: Modified JIS Z2801, increased inoculum, Quat-containing matte wall paint. The format is cell-based. Particulars: Quat 5200 ppm, Cu 0 ppm in matte wall paint. The method, then:
(§1) The antibacterial efficacies of copper-containing composition in dry paint film were evaluated using a modified JIS Z2801 method (Antimicrobial Product-Test for Antimicrobial Activity and Efficacy: 2000) by reducing contact time from 24 hour to 2 hour, including Pseudomonas aeruginosa as an additional bacteria and increasing inoculum strength to 5.0 to 10.0×10^7 cfm/mL. […] The paints were brushed onto the sterilized plastic filter paper. Each side of the filter paper was painted twice and the resulting coated paper was dried at ambient condition for 3 days. The dried coatings were then leached against 10 L water for 24 hours (4 water changes for the first 8 hour). Each of three (3) bacterial inoculum (0.4 mL): Escherichia coli (ATCC 8739), Staphylococcus aureus (ATCC 6538), Pseudomonas aeruginosa (ATCC 15442) was used to inoculate the dry film (40 mm×40 mm) of test paint to achieve 5.0 to 10.0×10^7 cfm/mL of inoculum concentration per each bacteria on dry surface of each test paint. The test paints were incubated at 35±1° C. and 90% RH for 2 hour. The degrees of bacterial contamination were determined relative to blank paint via viable cell count of bacteria by agar plate culture method.

In data set [3] the test system is Escherichia coli (ATCC 8739). The description is as above. The format is cell-based. Particulars: Quat 5200 ppm, Cu 0 ppm in matte wall paint. The method, then: as §1
The subject of data set [4] is Pseudomonas aeruginosa (ATCC 15442). The description is as above. The conditions noted are these: Quat 5200 ppm, Cu 0 ppm in matte wall paint. The format is cell-based. How it is done: as §1
In data set [5] the test system is Staphylococcus aureus (ATCC 6538). Kind of data set: Interim EPA method with dry and chemical abrasion, Quat-containing matte wall paint. The format is cell-based. The conditions noted are these: Quat 5200 ppm, Cu 0 ppm; for 2 hr Contact Time % ↓ / 2 hr Contact Time Log10 ↓: relative to uncoated substrate. How it is done:
(§2) The antibacterial efficacies of copper-containing composition in dry paint film were evaluated using an interim EPA method (Interim Method for Evaluating the Efficacy of Antimicrobial Surface Coatings: Oct. 2, 2020). […] The paints were drawn-down onto the sterilized steel substrate (1 inch by 1 inch of AISI type 304 stainless steel). The resulting coated substrate was dried at ambient condition for at least 24 hours. Some of the dried coated substrates were further subject to dry and chemical abrasion for 1 week residual efficacy claim. As for dry abrasion, the coated substrate was exposed to 10 cycles of dry abrasion by a Scotch Brite Non-Scratch Scrub Sponge using a BYK Gardner-Scrub machine, each of which comprises 16 single passes. As for chemical abrasion, the scrub sponge was soaked in sodium hypochlorite (2000 ppm NaOCl) solution and EPA-registered Quat-containing Nugen™ MB^5N-256 (256× dilution) disinfectant prior to the abrasion. The coated substrate was exposed to 10 cycles of chemical abrasion by the soaked scrub sponge, each of which comprises 8 single passes. After rinsing and drying to remove the residual NaOCl and Quat, each of two (2) bacterial inoculum ([…]): Staphylococcus aureus (ATCC 6538) and Pseudomonas aeruginosa (ATCC 15442) was used to inoculate the dry film of test paint to achieve 10^4 to 10^5 cfm/carrier of bacteria on dry surface of each test paint. The test paints were incubated at 22° C. and 30-40% RH for 2 hours. The degrees of bacterial contamination were determined via viable cell count for antibacterial efficacy relative to the uncoated substrate.

Data set [6] relates to Pseudomonas aeruginosa (ATCC 15442). The description is as above. The format is cell-based. Particulars: Quat 5200 ppm, Cu 0 ppm; for 2 hr Contact Time % ↓ / 2 hr Contact Time Log10 ↓: relative to uncoated substrate. The method, then:
as §2

Some results are limits rather than exact numbers.

The solubility is how much of the substance goes into solution per volume. In the case of `On1ccccc1=S.On1ccccc1=S.[Cu]` [copper pyrithione], in data set [1], the solubility was 30 ng/mL.

Take “alkyl (50% C14, 10% C16, 40% C12) dimethyl benzyl ammonium chloride [Quat]”: the “2 hr Contact Time Avg” value is listed as below 1.5E+02 in data set [2]; 1.4E+02 in data set [3]; 2.9E+05 in data set [4]; 1.0E+0 in data set [5] (Dry Abraded); 1.0E+0 in data set [5] (NaOCl Abraded); 1.0E+0 in data set [5] (Unexposed). Moreover, the “2 hr Contact Time Avg” value in data set [6] (Dry Abraded) amounted to 1.0E+2; in data set [6] (NaOCl Abraded), 1.4E+0; in data set [6] (Quat Abraded) it was 1.1E+2; in data set [6] (Unexposed) it was 1.7E+3. Moreover, the “2 hr Contact Time Log10” value is given as below 2.19 in data set [2]; 2.16 in data set [3]; 5.46 in data set [4]; 0.00 in data set [5] (Dry Abraded); 0.00 in data set [5] (NaOCl Abraded); 0.00 in data set [5] (Unexposed). For the same compound, the “2 hr Contact Time Log10” value was 2.01 in data set [6] (Dry Abraded), 0.16 in data set [6] (NaOCl Abraded), 2.06 in data set [6] (Quat Abraded) and 3.23 in data set [6] (Unexposed). Also, the “2 hr Contact Time % ↓” value in data set [5] (Dry Abraded) is given as 99.9990%; in data set [5] (NaOCl Abraded), 99.9990%; in data set [5] (Unexposed), 99.9990%; in data set [6] (Dry Abraded), 99.6285%; in data set [6] (NaOCl Abraded), 99.9994%; in data set [6] (Quat Abraded) it was 99.5831%. For the same compound, the “2 hr Contact Time % ↓” value in data set [6] (Unexposed) was found to be 93.8340%. Besides, the “2 hr Contact Time Log10 ↓” value in data set [5] (Dry Abraded) turned out to be 5.00; in data set [5] (NaOCl Abraded), 5.00; in data set [5] (Unexposed), 5.00; in data set [6] (Dry Abraded) it was 2.43; in data set [6] (NaOCl Abraded), 4.28; in data set [6] (Quat Abraded), 2.38. Also, the “2 hr Contact Time Log10 ↓” value in data set [6] (Unexposed) was found to be 1.21.

Source of the values: patent US20260250519A1, “Copper Containing Compounds and Compositions for Antimicrobial Paint and Coating” (ARXADA, LLC, priority 2022, published 2026).
